Laboratory results as given in patent US20110151474A1, “METHOD OF ESTIMATING THE RISK OF EXPRESSION OF ADVERSE DRUG REACTION CAUSED BY THE ADMINISTRATION OF A COMPOUND, WHICH IS EITHER METABOLIZED PER SE BY UGT1A1 ENZYME OR WHOSE METABOLIC INTERMEDIATE IS METABOLIZED BY THE ENZYME” (DAIICHI PURE CHEMICALS CO ., LTD, priority 2000, published 2011).

Columns and labels:
[1] = out of 1245 patients during period of clinical trials; cited from earlier work
[2] = Retrospective review of adverse drug reaction (leukopenia, diarrhea, severe toxicity) in patients given irinotecan chemotherapy, correlated with UGT1A1 genotype; assay type: in vivo, Japanese patients; details: for odds ratio of severe toxicity: logistic regression
From the text: The subjects were Japanese patients who had received irinotecan administration in their chemotherapies from July 1994 to June 1999. For confirming the security of the patients, each patient was primarily ensured to have an adequate bone marrow function before the use of irinotecan: a leukocyte count of 3×10^9/liter or more, and a platelet count of 100×10^9/Iiter or more. In addition, the patients who had evidence of watery diarrhea, paralytic ileus, pulmonary interstitial pneumonia or fibrosis, massive ascites or pleural effusion, apparent jaundice, or anamnesis of hypersensitivity to irinotecan were excluded from the irinotecan use. As a result, 118 patients were used as a subject of this Example.
For confirming the adaptability to irinotecan, the complete blood count, platelet count and serum chemistry were assessed at least once a week. And bilirubin levels were always measured.
We retrospectively reviewed the clinical records including patients' characteristics (e.g. age, gender and the like), the dosage and schedule of irinotecan administration, the record of use of other drugs or radiotherapy, and observed adverse drug reaction caused by irinotecan (infusion). We counted the number of days when the patients received granulocyte colony stimulating factors (G-CSFs) or loperamide hydrochloride, the latter of which is commonly prescribed for irinotecan-induced diarrhea in Japan. Prophylactic administration of G-CSF prevented the apparent onset of neutropenia. Since the dose limiting toxicity of irinotecan is known to result in leukopenia and diarrhea, we defined as “severe toxicity” as leukopenia of grade 4 (0.9×10^9/liter) and the diarrhea of grade 3 or worse (grade 3 is for the watery diarrhea for 5 days or more; grade 4, the diarrhea with hemorrhagic or dehydration as classified in accordance with the Japan Society for Cancer Therapy criteria). No other adverse drug reactions were included in this example because they would be influenced by miscellaneous patients' backgrounds. The Serum total bilirubin levels were recorded with the scores just prior to irinotecan administration along with the highest of those after initiation of the therapy.
Blood was sampled from each patient (118 samples) and their genotypes were analyzed after irinotecan administration in each patient. […]
We analyzed the following variant sequences for each genomic DNA (see Fig. I): a two-extra-nucleotide (TA) insertion within the TATA box resulting in the sequence (TA)7TAA at positions −39 to −53, whose type is referred to as UGT1A1 *28; (Monaghan, G., Ryan, M., Seddon, R., Hume, R., and Burchell, B., Lancet, 347: 578-581, 1996, Bosma, P. J. et al., N. Engi. J. Med., 333: 1171-1175, 1995); a transition at codon 71 in exon I (from (G) to (A) at +211 locating in the downstream region from the initial site of the transcription) that changes glycine to arginine (represented by G71 R, whose type is referred to as UGT1A1*6); a transversion at codon 229 in exon I that alters proline to glutamine (represented by P229Q, whose type is referred to as UGT1A1*27); a trarisversion at codon 367 from (C) to (G) at position +1099 in exon 4 that converts arginine to glycine (represented by R367G, whose type is referred to as UGT1A1*29); and a transversion (+1456, T to G) at codon 486 in exon 5 that transforms tyrosine (Y) into aspartic acid (D) (represented by Y486D, whose type is referred to as UGTIA1*7). […]

## CCc1c2c(nc3ccc(OC(=O)N4CCC(N5CCCCC5)CC4)cc13)-c1cc3c(c(=O)n1C2)COC(=O)[C@]3(O)CC [irinotecan]
[1]
  deaths attributed to adverse drug reactions: 55 patients
[2]; UGT1A1*6, 95% CI 0.15-1.61, P>0.2
  odds ratio of severe toxicity: 0.55
[2]; all patients heterozygous for UGT1A1*27
  patients who experienced severe toxicity: 3 patients
[2]; genotype heterozygous or homozygous for UGT1A1*28, 95% CI 1.98-13.96, P<0.001
  odds ratio of severe toxicity: 5.21
[2]; of 118 patients given irinotecan, 92 did not
  patients who experienced severe toxicity (leukopenia grade 4 and/or diarrhea grade 3 or worse): 26 patients
[2]; possession of UGT1A1*28, multiple logistic regression with gender and chemotherapy regimen (FIG. 5)
  increase of severe toxicity of irinotecan: 7 fold
